The values below come from patent US20250000924A1, “Composition for the prevention, improvement or treatment of allergic disease comprising an extract of Taxus cuspidata as an active ingredient” (KOREA INSTITUTE OF SCIENCE AND TECHNOLOGY, priority 2023, published 2025).

The test system of the assay is mast cells. Description: Anti-allergic effect of active ingredients derived from Taxus cuspidata extract (degranulation, PGE2, TNF-α, IL-4 overall). Format: cell-based, rat. Particulars: overall statement on FIGS. 13 to 16; compounds at 20 μM. The method, then:
Mast cells were cultured in the same manner as in Example 2 above, and then treated with the nine compounds isolated in Example 11 above at a concentration of 20 μM, respectively.
Mast cells were cultured in the same manner as in Example 3 above, and then treated with the nine compounds isolated in Example 11 above at a concentration of 20 μM, respectively.
• treated with the 9 compounds isolated in Example 11 at a concentration of 20 μM, respectively.
Mast cells were cultured in the same manner as in Example 5 above, and then treated with the nine compounds isolated in Example 11 above at a concentration of 20 μM, respectively.

The structures appear in SMILES notation.

For the molecule `OCCCc1ccc(O)cc1` [3-(4-Hydroxyphenyl)-1-propanol], the anti-allergy effects entry is reported as “excellent”.
Next, `O=Cc1ccc(O)cc1` [4-hydroxyl benzandehyde]: “excellent”; `COc1cc(O)cc(OC)c1` [Taxicatigenin]: “excellent”.
